Experiments:
[1] = test system: MYC mRNA, MV4:11 (AML) or Raji (Burkitt's lymphoma) cells; experiment: cMyc RNA quantification assay (QuantiGene); type: cell-based; settings: MV4:11 or Raji cells, 4 h, MYC mRNA normalized to DMSO
Method: cMyc RNA Quantification Assay (QuantiGene® Assay):
MV4:11 (AML) or Raji (Burkitt's lymphoma) cells were seeded in a 96-well plate and incubated in the presence of various concentrations of compounds for 4 h. Relative mRNA levels were quantitated by using QuantiGene 2.0 assay (Affymetrix) according to the manufacturer's recommendation. Signals were detected by using an Envision plate reader (Perkin-Elmer). Biological duplicates were averaged and normalized to vehicle (DMSO) control to calculate percent MYC mRNA levels.

[2] = test system: IL-6 secretion, THP-1 cells; experiment: Cell-based IL-6 quantification assay (ELISA, Mesoscale) in LPS-stimulated THP-1 cells; settings: Homo sapiens, LPS 4 μg/mL, 16 h, ELISA value/CellTiter-Glo ratio
Method: Cell-Based IL-6 Quantification Assay (ELISA, Mesoscale Assay):
100,000 THP-1 cells were seeded in RPMI1640-10% FBS in 96-well plates. LPS (E. Coli Invitrogen) in RPMI-10% FBS at a final concentration of 4 μg/mL was added to the wells and the cells are then incubated in the presence of various concentrations of compounds for 16 h. Plates are spun ([…], 5 min), an aliquot of 25 uL supernatant is transferred in to an ELISA plate (Mesoscale technology, MSD) and the detection of IL-6 is performed using manufacturer's instructions. The amount of cells in each well is assessed using CellTiter-Glo® (Promega). The ratio of ELISA value/CellTiter-Glo value is used to calculate the percent of inhibition of IL-6 secretion.

BRD4(BD1) = molecular target: T1, BRD4(BD1) (Homo sapiens, UniProt O60885); experiment: BRD4 AlphaLisa binding assay; settings: BRD4(BD1) 30 nM, biotinylated H4-tetraacetyl peptide 200 nM, read-out: AS IC50
T1 construct: His; made in house
Method: IC50 Measurements for Inhibitors Using BRD4 AlphaLisa Binding Assay
Specifically, in a 384 well ProxiPlate BRD4(BD1) (30 nM final) was combined with peptide (200 nM final) in 40 mM HEPES (pH 7.0), 40 mM NaCl, 1 mM DTT, 0.01% (w/v) BSA, and 0.008% (w/v) Brij-35 either in the presence of DMSO (final 1.2% DMSO) or compound dilution series in DMSO. After 20 minute incubation at room temperature Alpha streptavidin donor beads and AlphaLisa anti-Flag acceptor beads were added to a final concentration of 10 ug/mL each. After three hours equilibration plates were read on an Envision instrument and IC50s calculated using a four parameter non-linear curve fit.

IC50 [2] [nM] | IC50 (BRD4(BD1)) [nM] | SMILES | EC50 [1] [nM]
340 | 80 | Cc1noc2c1-c1ccc(-c3cnn(C)c3)cc1N(c1ccc(C#N)cc1)CC2CCO (stereo not drawn) [Compound 138, 4-(4-(2-hydroxyethyl)-1-methyl-8-(1-methyl-1H-pyrazol-4-yl)-4H-benzo[b]isoxazolo[4,5-d]azepin-6(5H)-yl)benzonitrile] | 310
> 1000 | 1000 | Cc1noc2c1-c1ccc(-c3ccc(N)nc3)cc1N(c1ccc(C#N)cc1)CC2CC(=O)N(C)C (stereo not drawn) [Compound 139, 2-(8-(6-aminopyridin-3-yl)-6-(4-cyanophenyl)-1-methyl-5,6-dihydro-4H-benzo[b]isoxazolo[4,5-d]azepin-4-yl)-N,N-dimethylacetamide] | > 4000

Reference: patent US9624244B2, “Benzo [B] isoxazoloazepine bromodomain inhibitors and uses thereof” (Constellation Pharmaceuticals, Inc., priority 2012, dated 2017)
